Measured values as given in patent publication US11781114B2, “Materials and methods for expansion of stem cells” (FLORIDA STATE UNIVERSITY RESEARCH FOUNDATION, INC., priority 2014, dated 2023).
“Also recorded” adds a separate entry of the source. One block for each molecule: values may come before it.

Columns and labels:
Assay type in all cases: cell-based, human
hMSC aggregates [1] = assay: hMSC aggregate formation and compaction (aggregate size) with cytoskeleton modulators; design: aggregate compaction vs non-treated control: dose or concentration left out as unconfirmed; conditions: for aggregate compaction / aggregate diameter: 0.2 to 0.6 μM; for aggregate compaction vs non-treated control: nocodazole 3D treatment
Procedure: hMSCs from monolayer culture were trypsinized and 100 μL media containing 5,000 cells were added in each well of an ultra-low attachment (ULA) 96-well plate with round-bottom (Corning, Corning, N.Y.) for overnight. To analyze size-dependent ATP contents, aggregates containing 500, 2,000, and 5,000 cells were used following the same method. Suspended single hMSCs spontaneously self-assembled into one aggregate per well. Aggregates were cultured individually up to 7 days with media change every two days. The aggregates were tracked individually and the morphologies were imaged with an Olympus IX70 microscope (Center Valley, Pa.).
Cytochalasin D (cytoD), lysophosphatidic acid (LPA), Y-27632, nocodazole were added into culture media to final concentrations of 0.2 to 0.6 μM, 2.0 to 10.0 μM, 2.0 to 10 μM, and […], respectively. To test the temporal effects of actin modulators on aggregate formation, cells were treated with media containing cytoD and LPA during monolayer culture prior to aggregate formation (termed “2D Pretreatment”) or 12 hours after aggregate formation in ULA plates (termed “3D Treatment). Only 3D treatments were performed for Y-27632 and nocodazole.
Morphology of the aggregates was visualized using an Olympus IX70 microscope and the images recorded. The images were processed and the areas of the individual aggregates were calculated using ImageJ software (rsb.info.nih.gov/ij/). The DNA content of the individual aggregates was used to calculate cell number. Briefly, individually collected hMSC aggregates were washed with phosphate buffered saline (PBS) and digested with proteinase K overnight. PicoGreen (Life Technologies) was added to triplicate samples and a DNA standard in a 96-well plate. The cell numbers in aggregates were determined by the PicoGreen fluorescence intensity using 9.3 pg/cell as determined in our prior study (Kim and Ma 2012). DNA assay detects double-stranded DNA that may also be present in dead cells with intact DNA. However, this population in the aggregates is low, and the yield of live cells measured by DNA assay is close to cell count using other methods such as flow cytometry (Ylostalo et al. 2014). The packing densities were calculated using cell number divided by aggregate volume assuming a spherical shape. At least six aggregates were used in each condition.

hMSC aggregates [2] = assay: Cell survival and packing density of aggregates by DNA content (PicoGreen)
Procedure: The DNA content of the individual aggregates was used to calculate cell number. Briefly, individually collected hMSC aggregates were washed with phosphate buffered saline (PBS) and digested with proteinase K overnight. PicoGreen (Life Technologies) was added to triplicate samples and a DNA standard in a 96-well plate. The cell numbers in aggregates were determined by the PicoGreen fluorescence intensity using 9.3 pg/cell as determined in our prior study (Kim and Ma 2012). […] The packing densities were calculated using cell number divided by aggregate volume assuming a spherical shape. At least six aggregates were used in each condition.

PGE-2 = assay: Secreted PGE-2 in conditioned media (Parameter Assay Kit); conditions: treated 3D aggregates
Procedure: (§1) Caspase 3/7 activity was measured by Caspase-Glo 3/7 assay systems (Promega, Madison, Wis.). Caspase-Glo 3/7 working buffer was added to triplicate samples containing aggregates and culture media in 96-well [sequence] 200 white immunology plate (Greiner Bio-One, Monroe, N.C.). The results were read by a luminescence plate reader and normalized to cell number (Biotek Instruments, Winooski, Vt.). Secreted PGE-2 and IL-6 in conditioned media were quantified using a PGE-2 Parameter Assay Kit and IL-6 DuoSet ELISA kits, respectively (R&D Systems, Minneapolis, Minn.). Total secreted PGE-2 and IL-6 were determined by subtracting cytokine concentrations in culture media controls and normalized to the cell number in the aggregates.

IL-6 = assay: Secreted IL-6 in conditioned media (ELISA); conditions: treated 3D aggregates
Procedure: as §1

hMSC aggregates [3] = assay: Morphology by SEM, H&E histology and F-actin staining; conditions: for cell morphology in the aggregates (SEM and histology) / outer boundary of aggregates (H&E, F-actin staining of sections): treated aggregates vs control aggregates; for hMSC morphology on 2D planar surface (F-actin staining): nocodazole treatment
Procedure: For SEM, the aggregate samples were fixed in 4% paraformaldehyde (PFA), dehydrated through a graded series of ethanol, incubated in hexamethyldisilazane, and vacuum dried overnight. The samples were mounted onto carbon-coated chucks, sputter-coated with gold in an argon atmosphere for 4 minutes at 2 kV, and analyzed on a SEM (JSM-7401F) (JEOL, Tokyo, Japan). For immunostaining, the cells were fixed with 4% PFA, permeabilized with 0.5% Triton X-100, blocked with 1.0% BSA, incubated with primary antibody, and imaged with an Olympus IX70 (Center Valley, Pa.) microscope. For histology, hematoxylin-eosin (H&E) staining was performed following the prior reported method (Kim and Ma 2012). hMSC aggregates were fixed in 10% formalin, dehydrated and embedded in paraffin wax; 10 μm sections were cut and stained with Lerner-2 Hematoxylin (Lerner Laboratories, Pittsburgh, Pa.) and Eosin-Y w/ Phloxine (Richard-Allan Scientific, Kalamazoo, Mich.) by standard procedures (Kim and Ma 2012). Images were captured with Olympus IX70 microscope with MagnaFire SP 2.1B software.

hMSC aggregates [4] = assay: Aggregate spreading on glass coverslip and fusion on ULA surface; conditions: for aggregate spreading on glass coverslip / fusion of adjacent aggregates on ULA surface: aggregates treated for 5 days
Procedure: To test re-adhesion and fusion, the aggregates from various treatment conditions were plated on glass coverslip for re-adhesion or placed adjacently on ULA surface for fusion. Images were captured with Olympus IX70 microscope and analyzed by ImageJ software.

Caspase 3/7 = assay: Caspase-Glo 3/7 assay; conditions: for caspase 3/7 activity in 3D aggregates: normalized to cell number
Procedure: as §1

hMSC aggregates [5] = assay: hMSC aggregate formation and compaction (aggregate size) with cytoskeleton modulators; conditions: cytoD 2D pretreatment, concentration above 0.6 μM (high concentration)
[6] = Q-VD-OPh, after three days of culture
[7] = 0.6 μM cytoD 3D treatment, day 5

Molecule: CC(C)[C@H](NC(=O)c1ccc2ccccc2n1)C(=O)N[C@@H](CC(=O)O)C(=O)COc1c(F)cccc1F [Q-VD-OPh]
aggregate compaction vs control (hMSC aggregates [1]; [6]): significantly reduced cell compaction
cell packing density vs control (hMSC aggregates [2]; [6]): increased cell packing density; also recorded: higher packing density
cell viability / survival vs control (hMSC aggregates [2]; [6]): improved cell survival; also recorded: significantly increased cell viability
PGE-2 secretion of 3D aggregates (PGE-2): attenuated to basal levels
IL-6 secretion of 3D aggregates (IL-6): attenuated to basal levels

caspase 3/7 activity in 2D adherent culture (Caspase 3/7): increased caspase 3/7 activity
Molecule: C[C@@H](N)[C@H]1CC[C@H](C(=O)Nc2ccncc2)CC1 [Y-27632]
cell morphology in the aggregates (SEM and histology) (hMSC aggregates [3]): large interstitial space and exhibit round morphology; also recorded: loosely packed and exhibited spherical morphology with abundant interstitial space
outer boundary of aggregates (H&E, F-actin staining of sections) (hMSC aggregates [3]): disintegrated outer boundaries; also recorded: discontinuous outer boundary; also recorded: loosely packed with no spreading at the boundary
increase in aggregate diameter compared to control aggregates (hMSC aggregates [1]; 10 μM Y-27632, day 5): 6.7%
aggregate compaction (hMSC aggregates [1]; Y-27632 3D treatment, 10 μM): prevented aggregate compaction; also recorded: reduced aggregate compaction
aggregate spreading on glass coverslip (hMSC aggregates [4]): readily re-adhered and spread on glass coverslips
fusion of adjacent aggregates on ULA surface (hMSC aggregates [4]): fused when adjacently placed on ULA surface; also recorded: reduced tendency to fuse
cell viability / cell survival vs control aggregates (hMSC aggregates [2]; 10 μM Y-27632, 5 days of treatment): lower than non-treated control; also recorded: comparable or even less
decrease in cell packing density compared to control aggregates (hMSC aggregates [2]; 10 μM Y-27632, day 5): 38.7%
cell packing density vs control (in words) (hMSC aggregates [2]; Y-27632, day 5): significantly lower
PGE-2 secretion of 3D aggregates (PGE-2): limited effects
caspase 3/7 activity in 3D aggregates (Caspase 3/7): highest caspase 3/7 activity; also recorded: increased caspase 3/7 activity
IL-6 secretion of 3D aggregates (IL-6): limited effects

Molecule: C=C1[C@@H](C)[C@H]2[C@H](Cc3ccccc3)NC(=O)[C@]23[C@H](OC(C)=O)/C=C/[C@@](C)(O)C(=O)[C@@H](C)C/C=C/[C@H]3[C@@H]1O [cytoD, Cytochalasin D]
cell morphology in the aggregates (SEM and histology) (hMSC aggregates [3]): large interstitial space and exhibit round morphology; also recorded: loosely packed and exhibited spherical morphology with abundant interstitial space
outer boundary of aggregates (H&E, F-actin staining of sections) (hMSC aggregates [3]): loosely packed with no spreading at the boundary
outer boundary of aggregates (H&E, F-actin staining of sections) (hMSC aggregates [3]; listed as CytoD): disintegrated outer boundaries; also recorded: discontinuous outer boundary
outer boundary of aggregates (H&E, F-actin staining of sections) (hMSC aggregates [3]; listed as cytochalasin D): disrupted the mechanically polarized outer layer
aggregate compaction (hMSC aggregates [1]; cytoD 2D pretreatment, lower concentrations): prevented aggregate compaction
aggregate compaction (hMSC aggregates [1]; cytoD 2D pretreatment, lower concentrations, listed as CytoD): reduced compaction
aggregate integrity (hMSC aggregates [1]; cytoD 3D treatment, 0.6 μM): remained intact
aggregate compaction / aggregate diameter (hMSC aggregates [1]; cytoD 3D treatment): dose-dependent reduction on compaction
aggregate compaction / aggregate diameter (hMSC aggregates [1]; cytoD 3D treatment, listed as CytoD): reduced compaction; also recorded: Dose-dependent decline of aggregate diameters
aggregate spreading on glass coverslip (hMSC aggregates [4]): abolishes; also recorded: did not spread on glass coverslips; also recorded: completely prevented aggregate spreading on glass coverslip
fusion of adjacent aggregates on ULA surface (hMSC aggregates [4]): abolishes; also recorded: nor fused; also recorded: completely prevented
fusion and adhesion properties of hBMSC aggregates (hMSC aggregates [4]; hBMSC aggregates on ULA plates / glass): abrogated their fusion and adhesion properties; also recorded: abrogates these properties
cell viability / cell survival vs control aggregates (hMSC aggregates [2]; [7]): significantly reduced cell viability; also recorded: significantly lower cell survival
packing density vs control aggregates (hMSC aggregates [2]; [7]): significantly reduced; also recorded: significantly lower
PGE-2 secretion of 3D aggregates (PGE-2): limited effects
caspase 3/7 activity in 2D adherent culture (Caspase 3/7): significantly increased caspase 3/7 activity
caspase 3/7 activity in 3D aggregates (Caspase 3/7): comparable apoptotic activity
hMSC aggregation (aggregate formation) (hMSC aggregates [5]): disrupted hMSC aggregation
hMSC aggregation (aggregate formation) (hMSC aggregates [5]; listed as CytoD): prevented hMSC aggregation
IL-6 secretion of 3D aggregates (IL-6): limited effects

Molecule: COC(=O)Nc1nc2cc(C(=O)c3cccs3)ccc2[nH]1 [nocodazole]
hMSC morphology on 2D planar surface (F-actin staining) (hMSC aggregates [3]): drastic changes of cell morphology
hMSC morphology on 2D planar surface (F-actin staining) (hMSC aggregates [3]; listed as Nocodazole): significantly altered hMSC morphology
aggregate compaction vs non-treated control (hMSC aggregates [1]): comparable contractility with control aggregates; also recorded: comparable or higher compaction
aggregate compaction vs non-treated control (hMSC aggregates [1]; listed as Nocodazole): faster compaction
aggregate spreading on glass coverslip (hMSC aggregates [4]): readily spread on adherent surface; also recorded: readily re-adhered and spread on glass coverslips; also recorded: spread on glass coverslip
fusion of adjacent aggregates on ULA surface (hMSC aggregates [4]): fuse with neighboring aggregates; also recorded: fused when adjacently placed on ULA surface; also recorded: readily fused

caspase 3/7 activity in 2D adherent culture (Caspase 3/7): increased caspase 3/7 activity
caspase 3/7 activity in 3D aggregates (Caspase 3/7): increased caspase 3/7 activity
Molecule: lysophosphatidic acid [LPA]
aggregate compaction vs control (hMSC aggregates [1]; LPA up to 10 μM, 2D pretreatment and 3D treatment): minimal impact on aggregate compaction; also recorded: declined at the same rate as control; also recorded: limited effects
aggregate spreading on glass coverslip (hMSC aggregates [4]): readily re-adhered and spread on glass coverslips; also recorded: spread on glass coverslip
fusion of adjacent aggregates on ULA surface (hMSC aggregates [4]): fused when adjacently placed on ULA surface; also recorded: readily fused
viability / cell survival vs control (hMSC aggregates [2]; LPA up to 10 μM, 5 days 3D treatment): comparable cell survival; also recorded: limited effects
cell packing density vs control (hMSC aggregates [2]; LPA, 5 days 3D treatment): comparable
